Data on two molecules can be found in article PMC7259758 (PLoS ONE, 2020).

One assay relates to phosphorylation of SF3B1. Kind of assay: Western blot of nuclear extracts, phosphor-SF3B1. To be noted: HCT116 and Rh18 cells, 4 h; SD6 10 μM, compound 1 10 μM, compound 2 5 μM. A general note: In western blotting, separated proteins are transferred to a membrane and probed.
The subject of assay [1] is phosphorylation of SR proteins. The assay is described as follows: Western blot of nuclear extracts, phosphor-SR proteins. The note with it: HCT116 and Rh18 cells, 4 h; SD6 10 μM, compound 1 10 μM, compound 2 5 μM, compound 3 10 μM.
Description: (§3) HCT116 cells were seeded at 3 million cells per 100 mm culture plate. The next day cells were treated with 5 μM or 10 μM of each compound for 4h and 8h. […] The pellet was snap frozen on dry ice and then thawed and spun at 12K rpm for 5 min, 4C. The supernatant was collected (nuclear extract) and protein concentrations determined using BCA Protein Assay Kit. […] The proteins were transferred to PVDF membrane using a wet transfer system. […] After the secondary antibody incubation, membranes were washed 4X with PBS containing 0.1% Tween-20 and 1X with PBS before imaging using the Li-Cor Odyssey imaging system.
(§4) Lanes 6 to 10 are nuclear extracts from Rh18 cells.
Another assay addresses T1, DYRK2 (h) (Homo sapiens, UniProt Q92630).
T1 construct: purchased Eurofins, Dundee, Scotland
T1 sequence (Q92630 1-601): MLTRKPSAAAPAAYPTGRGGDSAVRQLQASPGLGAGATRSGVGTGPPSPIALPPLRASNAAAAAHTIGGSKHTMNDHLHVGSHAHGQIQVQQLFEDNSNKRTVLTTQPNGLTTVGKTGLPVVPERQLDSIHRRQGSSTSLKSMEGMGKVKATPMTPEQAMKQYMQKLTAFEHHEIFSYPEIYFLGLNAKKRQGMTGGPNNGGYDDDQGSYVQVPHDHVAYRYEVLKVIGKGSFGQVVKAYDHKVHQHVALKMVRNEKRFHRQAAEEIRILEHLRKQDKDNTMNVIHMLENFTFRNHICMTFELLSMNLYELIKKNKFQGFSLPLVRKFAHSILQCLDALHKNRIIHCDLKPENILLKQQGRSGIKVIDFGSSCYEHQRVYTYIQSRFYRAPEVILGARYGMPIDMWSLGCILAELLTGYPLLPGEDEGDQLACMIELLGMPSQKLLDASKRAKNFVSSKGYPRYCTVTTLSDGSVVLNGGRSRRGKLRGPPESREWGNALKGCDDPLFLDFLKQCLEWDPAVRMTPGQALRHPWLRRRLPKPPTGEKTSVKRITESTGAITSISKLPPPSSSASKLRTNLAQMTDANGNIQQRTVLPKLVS
Kind of assay: Radiometric protein kinase assay (Eurofins). The note with it: ATP 15 μM. It is filed as biochemical. The method, then: (§1) Enzymatic biochemical activities were evaluated in radiometric protein kinase assays (Eurofins, Dundee, Scotland). Kinases are incubated with buffer, substrate and [γ-^33P]-ATP (specific activity approx. 500 cpm/pmol, concentration as required). The reaction is initiated by the addition of the MgATP mix. After incubation for 40 minutes at room temperature, the reaction is stopped by the addition of 3% phosphoric acid solution. 10 μL of the reaction is then spotted onto a P30 filtermat and washed three times for 5 minutes in 75 mM phosphoric acid and once in methanol prior to drying and scintillation counting. All compounds are prepared to 50x final assay concentration in 100% DMSO. Positive control wells contain all components of the reaction with 2% DMSO. Blank wells contain all components of the reaction, with a reference inhibitor replacing the compound of interest. Each kinase is assigned a standard assay concentration of ATP within 20 μM of its apparent Km. Compounds were screened at 1 μM in duplicate or tested at 10 concentrations at half log dilution starting from 10 μM in singlicate. Dose response curves were fitted with four parameter logistic curve to obtain IC50 values. […]
(§2) Staurosporine is used as reference for all tested enzymes except for SRPK3 (reference inhibitor: K-252a. Nocardiopsis sp), NEK2 (reference inhibitor: […]), and CK2, CK2α2, MAPK1, MAPK2 (reference inhibitor: PKR Inhibitor). See Table 1 below for additional details.

The target in a further assay is T2, AKT3 (Homo sapiens, UniProt Q9Y243).
T2 construct: purchased Eurofins, Dundee, Scotland
T2 sequence (Q9Y243 whole entry): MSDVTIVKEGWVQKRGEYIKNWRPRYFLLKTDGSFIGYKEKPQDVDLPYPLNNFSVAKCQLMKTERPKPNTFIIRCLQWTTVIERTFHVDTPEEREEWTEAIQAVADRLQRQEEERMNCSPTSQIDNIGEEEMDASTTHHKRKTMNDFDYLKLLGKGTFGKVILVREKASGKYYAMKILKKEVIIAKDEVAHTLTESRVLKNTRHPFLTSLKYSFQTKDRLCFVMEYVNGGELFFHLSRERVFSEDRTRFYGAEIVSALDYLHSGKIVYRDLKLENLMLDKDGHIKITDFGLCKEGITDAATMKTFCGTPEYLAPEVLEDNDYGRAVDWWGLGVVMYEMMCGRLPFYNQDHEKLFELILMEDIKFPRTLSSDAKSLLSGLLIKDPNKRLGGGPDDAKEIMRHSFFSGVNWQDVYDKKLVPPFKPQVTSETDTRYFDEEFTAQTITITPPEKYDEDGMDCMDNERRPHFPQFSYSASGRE
Kind of assay: Radiometric protein kinase assay (Eurofins). The note with it: ATP 45 μM. In kind it is biochemical. The procedure:
as §1, §2

The next assay has as its target T3, DYRK1A(h) (Homo sapiens, UniProt Q13627).
T3 construct: purchased Eurofins, Dundee, Scotland
The assay is described as follows: Radiometric protein kinase assay (Eurofins). It is filed as biochemical. To be noted: ATP 45 μM. The method, then: as §1, §2

For another assay, the target named is T4, MAPK2 (h) (Homo sapiens, UniProt P28482).
T4 construct: purchased Eurofins, Dundee, Scotland
T4 sequence (P28482 whole entry): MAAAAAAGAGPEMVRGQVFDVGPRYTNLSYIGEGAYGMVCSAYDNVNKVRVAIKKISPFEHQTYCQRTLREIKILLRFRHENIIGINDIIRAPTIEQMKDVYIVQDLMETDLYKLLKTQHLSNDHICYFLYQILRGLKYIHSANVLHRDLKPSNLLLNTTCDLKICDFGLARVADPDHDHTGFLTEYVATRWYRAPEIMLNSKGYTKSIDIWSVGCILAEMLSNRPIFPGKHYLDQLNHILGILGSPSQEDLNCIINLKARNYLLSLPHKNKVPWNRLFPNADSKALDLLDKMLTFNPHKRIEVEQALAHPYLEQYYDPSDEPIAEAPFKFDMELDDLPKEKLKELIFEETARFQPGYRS
The assay is described as follows: Radiometric protein kinase assay (Eurofins). In kind it is biochemical. The note with it: 40 min; ATP 155 μM; read-out: MAPK2 IC50. The procedure:
as §1, §2

The target in the next assay is T5, MAPK1 (h) (Homo sapiens, UniProt P27361).
T5 construct: purchased Eurofins, Dundee, Scotland
T5 sequence (P27361 whole entry): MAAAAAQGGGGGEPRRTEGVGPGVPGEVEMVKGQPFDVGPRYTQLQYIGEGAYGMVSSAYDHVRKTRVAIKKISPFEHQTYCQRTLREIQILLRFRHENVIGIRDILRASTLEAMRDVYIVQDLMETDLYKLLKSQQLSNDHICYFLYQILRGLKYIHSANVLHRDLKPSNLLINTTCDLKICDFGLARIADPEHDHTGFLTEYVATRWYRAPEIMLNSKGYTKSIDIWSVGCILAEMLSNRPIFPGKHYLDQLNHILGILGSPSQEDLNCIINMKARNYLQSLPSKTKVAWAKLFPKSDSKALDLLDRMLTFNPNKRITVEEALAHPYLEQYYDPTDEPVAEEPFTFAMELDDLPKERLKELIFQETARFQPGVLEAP
The assay is described as follows: Radiometric protein kinase assay (Eurofins). It is filed as biochemical. To be noted: 40 min; read-out: MAPK1 IC50. The method, then:
as §1, §2

Another assay has as its target T6, GSK3α(h) (Homo sapiens, UniProt P49840).
T6 construct: purchased Eurofins, Dundee, Scotland
Kind of assay: Radiometric protein kinase assay (Eurofins). The note with it: 40 min; ATP 10 μM; read-out: GSK3α(h) IC50. In kind it is biochemical. The method, then: as §1, §2

A further assay has as its target T7, SRPK3 (h) (Homo sapiens, UniProt Q9UPE1).
T7 construct: purchased Eurofins, Dundee, Scotland
The assay is described as follows: Radiometric protein kinase assay (Eurofins). It is filed as biochemical. The note with it: ATP 15 μM. The method, then: as §1, §2

The next assay has as its target T8, DYRK1B (h) (Homo sapiens, UniProt Q9Y463).
T8 construct: purchased Eurofins, Dundee, Scotland
The assay is described as follows: Radiometric protein kinase assay (Eurofins). It is filed as biochemical. The note with it: ATP 45 μM. The method, then: as §1, §2

Another assay deals with T9, CLK4(h) (Homo sapiens, UniProt Q9HAZ1).
T9 construct: purchased Eurofins, Dundee, Scotland
T9 sequence (Q9HAZ1 whole entry): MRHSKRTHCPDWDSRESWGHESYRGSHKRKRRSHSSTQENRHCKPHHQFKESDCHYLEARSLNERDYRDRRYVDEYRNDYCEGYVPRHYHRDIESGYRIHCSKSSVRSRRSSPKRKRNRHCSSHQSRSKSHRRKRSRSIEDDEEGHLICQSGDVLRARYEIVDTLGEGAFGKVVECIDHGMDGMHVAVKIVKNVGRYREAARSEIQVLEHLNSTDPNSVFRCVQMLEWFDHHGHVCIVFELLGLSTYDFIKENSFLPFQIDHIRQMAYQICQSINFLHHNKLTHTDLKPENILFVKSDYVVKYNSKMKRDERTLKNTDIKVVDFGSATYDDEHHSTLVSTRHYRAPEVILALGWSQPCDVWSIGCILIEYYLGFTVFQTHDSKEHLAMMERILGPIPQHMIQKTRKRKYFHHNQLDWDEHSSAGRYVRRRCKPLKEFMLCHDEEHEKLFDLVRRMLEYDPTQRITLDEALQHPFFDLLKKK
Kind of assay: Radiometric protein kinase assay (Eurofins). The note with it: ATP 10 μM. In kind it is biochemical. The procedure: as §1, §2

The target in a further assay is T10, SRPK1(h) (Homo sapiens, UniProt Q96SB4).
T10 construct: purchased Eurofins, Dundee, Scotland
Kind of assay: Radiometric protein kinase assay (Eurofins). It is filed as biochemical. To be noted: ATP 10 μM. The procedure: as §1, §2

Another assay has as its target T11, SRPK2 (h) (Homo sapiens, UniProt P78362).
T11 construct: purchased Eurofins, Dundee, Scotland
The assay is described as follows: Radiometric protein kinase assay (Eurofins). To be noted: 40 min; ATP 10 μM; read-out: SRPK2 IC50. It is filed as biochemical. The method, then: as §1, §2

A further assay addresses T12, CK2α2 (h) (Homo sapiens, UniProt P19784).
T12 construct: purchased Eurofins, Dundee, Scotland
Kind of assay: Radiometric protein kinase assay (Eurofins). The note with it: 40 min; ATP 10 μM; read-out: CK2a2 IC50. In kind it is biochemical. The method, then: as §1, §2

The target of a further assay is T13, CK2 (h) (Homo sapiens, UniProt P68400).
T13 construct: purchased Eurofins, Dundee, Scotland
T13 sequence (P68400 whole entry): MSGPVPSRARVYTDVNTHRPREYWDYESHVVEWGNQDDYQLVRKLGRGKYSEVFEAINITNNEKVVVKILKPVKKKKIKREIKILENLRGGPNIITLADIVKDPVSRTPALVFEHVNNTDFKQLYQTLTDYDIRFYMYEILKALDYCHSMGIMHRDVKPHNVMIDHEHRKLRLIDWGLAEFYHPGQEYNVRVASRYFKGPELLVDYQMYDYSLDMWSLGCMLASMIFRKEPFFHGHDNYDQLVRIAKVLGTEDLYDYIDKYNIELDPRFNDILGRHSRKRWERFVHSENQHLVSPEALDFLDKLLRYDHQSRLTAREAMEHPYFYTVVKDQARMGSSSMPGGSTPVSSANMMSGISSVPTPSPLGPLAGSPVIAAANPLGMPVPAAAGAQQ
T13 sequence (P67870 whole entry partner): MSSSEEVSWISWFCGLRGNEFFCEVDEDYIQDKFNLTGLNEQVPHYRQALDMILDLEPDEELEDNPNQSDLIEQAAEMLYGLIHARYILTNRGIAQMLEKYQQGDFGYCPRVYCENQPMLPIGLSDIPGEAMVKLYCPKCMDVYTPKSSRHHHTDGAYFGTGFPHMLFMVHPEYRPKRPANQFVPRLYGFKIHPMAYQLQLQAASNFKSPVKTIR
The assay is described as follows: Radiometric protein kinase assay (Eurofins). It is filed as biochemical. The note with it: 40 min; ATP 10 μM; read-out: CK2 IC50. The method, then:
as §1, §2

Another assay deals with T14, CLK3(h) (Homo sapiens, UniProt P49761).
T14 construct: purchased Eurofins, Dundee, Scotland
T14 sequence (P49761 whole entry): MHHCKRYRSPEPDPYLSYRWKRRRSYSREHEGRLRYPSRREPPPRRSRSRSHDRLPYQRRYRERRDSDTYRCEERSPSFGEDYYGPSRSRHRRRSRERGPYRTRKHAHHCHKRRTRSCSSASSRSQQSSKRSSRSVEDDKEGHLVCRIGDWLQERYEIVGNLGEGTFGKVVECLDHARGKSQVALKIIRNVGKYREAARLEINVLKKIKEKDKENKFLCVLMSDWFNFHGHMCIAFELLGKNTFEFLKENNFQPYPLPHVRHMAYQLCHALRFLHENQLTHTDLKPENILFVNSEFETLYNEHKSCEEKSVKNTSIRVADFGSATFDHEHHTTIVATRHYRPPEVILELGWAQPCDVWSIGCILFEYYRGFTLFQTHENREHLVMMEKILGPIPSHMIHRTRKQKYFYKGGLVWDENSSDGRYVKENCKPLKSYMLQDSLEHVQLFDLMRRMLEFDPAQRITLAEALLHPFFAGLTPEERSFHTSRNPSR
Kind of assay: Radiometric protein kinase assay (Eurofins). It is filed as biochemical. To be noted: ATP 90 μM. The method, then:
as §1, §2

The target of a further assay is T15, CLK1(h) (Homo sapiens, UniProt P49759).
T15 construct: purchased Eurofins, Dundee, Scotland
T15 sequence (P49759 whole entry): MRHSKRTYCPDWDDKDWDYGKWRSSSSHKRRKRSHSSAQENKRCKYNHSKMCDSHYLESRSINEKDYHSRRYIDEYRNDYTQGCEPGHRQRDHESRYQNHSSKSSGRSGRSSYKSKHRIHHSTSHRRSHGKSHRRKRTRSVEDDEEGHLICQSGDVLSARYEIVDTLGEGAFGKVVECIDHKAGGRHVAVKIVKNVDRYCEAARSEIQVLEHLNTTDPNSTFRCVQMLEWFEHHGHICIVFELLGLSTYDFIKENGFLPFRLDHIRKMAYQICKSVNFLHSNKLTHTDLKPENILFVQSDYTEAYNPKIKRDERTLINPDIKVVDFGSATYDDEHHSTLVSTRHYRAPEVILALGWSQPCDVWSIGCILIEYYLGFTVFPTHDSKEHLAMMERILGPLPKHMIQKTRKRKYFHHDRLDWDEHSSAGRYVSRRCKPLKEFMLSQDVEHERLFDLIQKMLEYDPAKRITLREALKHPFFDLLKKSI
The assay is described as follows: Radiometric protein kinase assay (Eurofins). In kind it is biochemical. The note with it: ATP 10 μM. The method, then: as §1, §2

T7 sequence (Q9UPE1 whole entry): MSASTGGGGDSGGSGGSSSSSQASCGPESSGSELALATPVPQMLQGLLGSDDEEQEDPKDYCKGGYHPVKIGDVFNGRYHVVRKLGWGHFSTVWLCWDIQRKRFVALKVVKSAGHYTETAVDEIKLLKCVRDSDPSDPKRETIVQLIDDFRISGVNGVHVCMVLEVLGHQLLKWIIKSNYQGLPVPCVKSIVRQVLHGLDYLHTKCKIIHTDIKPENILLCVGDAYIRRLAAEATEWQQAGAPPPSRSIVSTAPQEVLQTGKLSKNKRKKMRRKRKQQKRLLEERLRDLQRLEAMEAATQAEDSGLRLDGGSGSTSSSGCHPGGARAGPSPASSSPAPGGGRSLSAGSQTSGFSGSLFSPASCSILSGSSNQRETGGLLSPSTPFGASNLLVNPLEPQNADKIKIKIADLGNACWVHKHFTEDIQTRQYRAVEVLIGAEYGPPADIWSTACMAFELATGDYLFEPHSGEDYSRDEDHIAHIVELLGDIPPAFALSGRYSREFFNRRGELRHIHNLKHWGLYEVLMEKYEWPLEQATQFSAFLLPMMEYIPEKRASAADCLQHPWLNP
T11 sequence (P78362 whole entry): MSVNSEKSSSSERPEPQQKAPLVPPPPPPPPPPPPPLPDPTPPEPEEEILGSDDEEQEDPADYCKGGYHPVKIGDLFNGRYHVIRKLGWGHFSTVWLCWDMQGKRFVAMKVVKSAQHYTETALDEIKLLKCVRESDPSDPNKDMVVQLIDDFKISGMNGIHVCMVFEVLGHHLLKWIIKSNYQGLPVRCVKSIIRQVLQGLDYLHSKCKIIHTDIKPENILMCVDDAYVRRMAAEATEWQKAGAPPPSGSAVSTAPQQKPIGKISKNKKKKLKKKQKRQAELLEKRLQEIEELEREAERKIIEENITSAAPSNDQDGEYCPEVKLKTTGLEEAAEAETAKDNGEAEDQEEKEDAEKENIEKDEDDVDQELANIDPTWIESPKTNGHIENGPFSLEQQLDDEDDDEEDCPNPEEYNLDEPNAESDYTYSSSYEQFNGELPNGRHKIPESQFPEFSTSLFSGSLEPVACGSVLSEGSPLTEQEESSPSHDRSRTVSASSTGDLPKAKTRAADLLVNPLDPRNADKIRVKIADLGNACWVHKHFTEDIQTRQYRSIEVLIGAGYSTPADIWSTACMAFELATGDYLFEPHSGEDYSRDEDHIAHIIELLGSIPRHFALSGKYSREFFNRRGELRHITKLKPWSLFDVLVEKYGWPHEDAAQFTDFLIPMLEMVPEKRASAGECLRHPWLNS
T12 sequence (P19784 whole entry): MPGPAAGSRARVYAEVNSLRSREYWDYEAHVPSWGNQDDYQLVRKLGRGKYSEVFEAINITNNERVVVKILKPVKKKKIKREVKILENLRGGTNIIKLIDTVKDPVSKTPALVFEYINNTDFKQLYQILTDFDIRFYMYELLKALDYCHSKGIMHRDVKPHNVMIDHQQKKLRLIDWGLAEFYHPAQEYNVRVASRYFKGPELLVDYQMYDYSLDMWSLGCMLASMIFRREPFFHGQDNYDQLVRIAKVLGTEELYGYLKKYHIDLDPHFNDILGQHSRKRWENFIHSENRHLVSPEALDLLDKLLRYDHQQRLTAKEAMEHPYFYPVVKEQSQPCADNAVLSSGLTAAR
Description for phosphorylation of SF3B1: as §3, §4

As usually defined, the IC50 is the point on the concentration scale where inhibition reaches its midpoint. The low end stands for higher potency, the high end for lower potency. Turning to `CNC(=O)c1nn(C)c2c1C(C)(C)Cc1cnc(Nc3ccc(N4CCN(C)CC4)cc3)nc1-2` [Compound 1, milciclib], in the assay on phosphorylation of SF3B1, the “Effect on phosphorylation of SF3B1 (immunoblot)” value is “reduced phosphorylation of both SR and SF3B1 proteins significantly”. Moreover, the “Effect on phosphorylation of SR proteins (immunoblot)” value in [1] is “reduced phosphorylation of both SR and SF3B1 proteins significantly”. The concentration for half-maximal inhibition (IC50) against DYRK2 (h) was determined as 48 nM; against DYRK1A(h) it was 17 nM; on DYRK1B (h), 5 nM; against CLK4(h), 13 nM; against CLK3(h), 425 nM; at CLK1(h), 3 nM. Moreover, the inhibition at 1 µM is under 50% at AKT3 (40 min, read-out: AKT3 IC50); under 50% at MAPK2 (h); under 50% at MAPK1 (h); under 50% on GSK3α(h); under 50% on SRPK3 (h) (40 min, read-out: SRPK3 IC50); under 50% on SRPK1(h) (40 min, read-out: SRPK1 IC50). Further, the inhibition at 1 µM on SRPK2 (h), on CK2α2 (h) and at CK2 (h) was under 50% in each case.
As to `Cc1nc(Nc2[nH]nc3c2CN(C(=O)N[C@H](CN(C)C)c2ccccc2)C3(C)C)c2sccc2n1` [Compound 2, PF-3758309], in the assay on phosphorylation of SF3B1, the “Effect on phosphorylation of SF3B1 (immunoblot)” value was “reduced phosphorylation of both SR and SF3B1 proteins significantly”. Further, the “Effect on phosphorylation of SR proteins (immunoblot)” value in [1] was “reduced phosphorylation of both SR and SF3B1 proteins significantly”. Moreover, the inhibition at 1 µM on DYRK2 (h) (40 min, read-out: DYRK2 IC50) is under 50%; at DYRK1A(h) (40 min, read-out: DYRK1A IC50), under 50%; at MAPK2 (h), under 50%; at MAPK1 (h), under 50%; at GSK3α(h) it was under 50%; at DYRK1B (h) (40 min, read-out: DYRK1B IC50), under 50%. Also, the inhibition at 1 µM on SRPK2 (h), on CK2α2 (h) and on CK2 (h) was under 50% in each case. Further, the half-inhibitory concentration (IC50) came to 54 nM against AKT3; 189 nM at SRPK3 (h); 48 nM at CLK4(h); 170 nM against SRPK1(h); 485 nM against CLK3(h); 27 nM against CLK1(h).
